Type in all cases: cell-based, murine
For data set [1], the system named is RAW264.7 macrophage cells. Nature of the data set: Cell viability by MTT method in RAW264.7 cells treated with compounds for 48 hours (no LPS). The settings on record: RAW264.7, no LPS, mean ± SD. On the procedure: (§1) To evaluate the immunomodulatory effects of these new compounds, the in vitro production of cytokines in RA W264.7 cells were treated without or with the compounds of the invention at different concentrations for 48 hours. The supernatants were collected for TNF-α assay, and cells were collected for viability analysis by MTT method.
For orientation: Tetrazolium dyes change colour on reduction, which living cells bring about.

Data set [2] deals with TNF-α. Nature of the data set: Spontaneous TNF-α secretion by RAW264.7 cells, sandwich ELISA of supernatants. The settings on record: spontaneous, 48 hours, control 88 ± 45. On the procedure: (§2) The cytokine levels in culture supernatants were measured by sandwich ELISA methods as described by Chen and Lin (Chen, M. L. et al., Int. Arch. Allergy Immunol. 2007, 143, 21-30). More specifically, the anti-cytokine antibodies (PharMingen, San Diego, Calif.) were coated in the 96-well plates (Nunc, Roskilde, Denmark) after overnight incubation at 4° C. and having been blocked with 1% BSA PBS buffer for 30 min. The samples and standards (recombinant mouse cytokines, PharMingen) were added to the 96-well plates for 2 hours incubation. The biotin-conjugated antibodies (biotinylated rat anti-mouse cytokine monoclonal antibodies, PharMingen) were added and incubated. After washing, streptavidin-conjugated peroxidase was added for 1 hour. The substrates, 2,2′-azino-bis-3-ethyl-benzthiazoline-6-sulfonic acid (ABTS, Sigma), were added to each well for 20 min. The plates were read in a microplate autoreader (Microplate autoreader; Bio-Tek Instruments, Winooski, Vt.) at 405 nm.
as §1

The test system of data set [3] is LPS-stimulated RAW264.7 macrophage cells. Nature of the data set: Cell viability by MTT method in LPS-stimulated RAW264.7 cells. The conditions noted are these: 30 min pretreatment then 50 ng/mL LPS 48 hours. On the procedure: (§3) IL-6, a proinflammatory cytokine which is a useful marker of infection, is secreted by macrophages in many infectious and inflammatory states, including cardiac surgery, cardiogenic shock, coronary bypass and bacteria sepsis (Kantar, M. et al., Eur. J. Pediatr. 2000, 159, 156-157). Serum concentration of IL-6 has been reported to correlate with disease severity (Pathan, N. et al., Lancet 2004, 363, 203-209). The productions of IL-6 from LPS-stimulated macrophages were measured to evaluate the anti-inflammation effect of the compounds. The cells were pretreated with compounds isolated from A. camphorata for 30 min and then stimulated with 50 ng/mL LPS for 48 hours. The supernatants were collected for TNF-α and IL-6 assay, and the cells were collected for viability analysis by MTT method.

Data set [4] has as its system TNF-α. Nature of the data set: TNF-α secretion in LPS-stimulated RAW264.7 cells, ELISA. The conditions noted are these: 50 ng/mL LPS 48 hours, LPS control 3.81 ± 0.93. Here is the method: as §2, §3
(ELISA stands for enzyme-linked immunosorbent assay.)

The test system of data set [5] is IL-6. In words: IL-6 secretion in LPS-stimulated RAW264.7 cells, ELISA. The conditions noted are these: for IL-6 (pg/mL) secretion: 50 ng/mL LPS 48 hours, LPS control 238 ± 86; for IC50: Mus musculus, LPS-stimulated RAW264.7, 50 ng/mL LPS 48 hours, highest tested concentration 10 μg/mL, read-out: IC50 of IL-6 production. On the procedure:
as §2, §3

Values after ≈ are worked out from the molar mass of the structure shown.

As a reminder, the IC50 is the point on the concentration scale where inhibition reaches its midpoint. Consider `COC(=O)/C(CC(C)C)=C(\C(=O)OC)c1ccc(O)cc1` [Compound 6, Dimethyl 2-(4-hydroxyphenyl)-3-isobutylmaleate], for which the “Cell viability (%)” value in data set [1] (0.5 μg/mL) was determined as 100 ± 6%; in data set [1] (1 μg/mL) it was 99 ± 7%; in data set [1] (2 μg/mL), 102 ± 6%; in data set [1] (5 μg/mL) it was 95 ± 8%; in data set [1] (10 μg/mL) it was 96 ± 11%; in data set [3] (0.5 μg/mL), 108 ± 6%. Also, the “Cell viability (%)” value in data set [3] (1 μg/mL) came to 107 ± 7%; in data set [3] (5 μg/mL), 106 ± 9%; in data set [3] (10 μg/mL), 102 ± 10%. The “TNF-α (pg/mL) secretion” value in data set [2] (0.5 μg/mL) came out at 100 ± 34 pg/mL; in data set [2] (1 μg/mL), 114 ± 41 pg/mL; in data set [2] (2 μg/mL), 90 ± 14 pg/mL; in data set [2] (5 μg/mL), 110 ± 22 pg/mL; in data set [2] (10 μg/mL), 116 ± 4 pg/mL. Further, the “TNF-α (ng/mL) secretion” value in data set [4] (0.5 μg/mL) was found to be 3.61 ± 0.22 ng/mL; in data set [4] (1 μg/mL), 3.70 ± 0.50 ng/mL; in data set [4] (5 μg/mL), 3.80 ± 0.53 ng/mL; in data set [4] (10 μg/mL), 3.32 ± 0.30 ng/mL. In addition, the “IL-6 (pg/mL) secretion” value is 235 ± 106 pg/mL in data set [5] (0.5 μg/mL), 215 ± 89 pg/mL in data set [5] (1 μg/mL), 209 ± 89 pg/mL in data set [5] (5 μg/mL) and 179 ± 91 pg/mL in data set [5] (10 μg/mL). Further, in data set [5], the IC50 was 25 µg/mL (≈ 85.5 µM).
Regarding `CC(C)C[C@@H]1C(=O)N(O)C(=O)[C@H]1c1ccc(O)cc1` (relative stereo) [Compound 2, trans-1-Hydroxy-3-(4-hydroxyphenyl)-4-isobutylpyrrolidine-2,5-dione], the “Cell viability (%)” value in data set [1] (0.5 μg/mL) was determined as 106 ± 7%; in data set [1] (1 μg/mL), 100 ± 5%; in data set [1] (2 μg/mL), 100 ± 5%; in data set [1] (5 μg/mL) it was 94 ± 6%; in data set [1] (10 μg/mL) it was 90 ± 4 %; in data set [3] (0.5 μg/mL), 110 ± 5 %. Besides, the entries for the “Cell viability (%)” value in data set [3] (1 μg/mL), in data set [3] (5 μg/mL) and in data set [3] (10 μg/mL) were 111 ± 6 %, 111 ± 8 % and 109 ± 2 %, respectively. For the same molecule, the “TNF-α (pg/mL) secretion” value in data set [2] (0.5 μg/mL) came to 108 ± 28 pg/mL; in data set [2] (1 μg/mL) it was 97 ± 13 pg/mL; in data set [2] (2 μg/mL) it was 105 ± 23 pg/mL; in data set [2] (5 μg/mL), 96 ± 8 pg/mL; in data set [2] (10 μg/mL), 128 ± 70 pg/mL. Besides, the “TNF-α (ng/mL) secretion” value in data set [4] (0.5 μg/mL) was 3.34 ± 0.58 ng/mL; in data set [4] (1 μg/mL), 4.04 ± 0.46 ng/mL; in data set [4] (5 μg/mL) it was 4.76 ± 0.65 ng/mL; in data set [4] (10 μg/mL) it was 3.66 ± 0.67 ng/mL. Further, the “IL-6 (pg/mL) secretion” value was determined as 216 ± 102 pg/mL in data set [5] (0.5 μg/mL), 224 ± 110 pg/mL in data set [5] (1 μg/mL), 210 ± 96 pg/mL in data set [5] (5 μg/mL) and 191 ± 68 pg/mL in data set [5] (10 μg/mL). In data set [5], the half-maximal inhibitory concentration (IC50) was found to be 54 µg/mL (≈ 205 µM).

The values are drawn from patent US8658690B2, “Use of novel compounds from fruiting body of Antrodia camphorata for treating an inflammatory disorder” (Well Shine Biotechnology Development Co., Ltd., priority 2008, dated 2014).
